Experimental data taken from patent US11364211B2, “Methods for selecting phosphatase selective and non-selective phosphatase inhibitors” (MEDICAL RESEARCH COUNCIL, priority 2015, dated 2022).
pKd: −log10 of the molar value.

How the values were obtained:
[1] = test system: eIF2α phosphorylation in MEFs; assay: eIF2α phosphorylation in r15a mut/mut or r15b mut/mut MEFs (immunoblot); assay type: cell-based, mouse
Description: HeLa cells were maintained in Dulbecco's Modified Eagle's Media (DMEM) supplemented with penicillin, streptomycin, glutamine and 10% fetal bovine serum (FBS). Ppp1r15a −/− and Ppp1r15b −/− MEF cells were maintained in DMEM supplemented with penicillin, streptomycin, glutamine, 55 μM β-mercaptoethanol, 1X non-essential amino acids (Sigma) and 10% FBS.
Cells (90,000 cells/ml) were plated in a 24-well plate and treated as indicated. At the end of treatment cells were lysed in 150 μl Laemmli Buffer. Lysates were boiled at 95° C. for 5 minutes, sonicated and resolved on 4-12% Bolt Bis-Tris Plus Gels (Thermo Fisher Scientific). Proteins were transferred to the nitrocellulose membrane using the iBlot 2 system (Thermo Fisher Scientific) and analysed using the following antibodies: e-IF2α-P (44-728G, Thermo Fisher Scientific, 1:1000), e-IF2α (ab5369, Abcam, 1:1000), tubulin (T5168, Sigma-Aldrich, 1:4000), BiP (610978, BD Biosciences Pharmingen, 1:1000), ATF4 (sc-200, Santa Cruz Biotechnology, 1:500), Ppp1r15a (10449-1-AP, Proteintech, 1:1000) and Ppp1r15b (14634-1-AP, Proteintech, 1:1000). Proteins were visualized using ECL Prime (GE Healthcare).

[2] = molecular target: PP1c (Homo sapiens, UniProt P36873); assay: SPR binding to PP1c alone immobilized on chip
PP1c, sequence (P36873 whole entry): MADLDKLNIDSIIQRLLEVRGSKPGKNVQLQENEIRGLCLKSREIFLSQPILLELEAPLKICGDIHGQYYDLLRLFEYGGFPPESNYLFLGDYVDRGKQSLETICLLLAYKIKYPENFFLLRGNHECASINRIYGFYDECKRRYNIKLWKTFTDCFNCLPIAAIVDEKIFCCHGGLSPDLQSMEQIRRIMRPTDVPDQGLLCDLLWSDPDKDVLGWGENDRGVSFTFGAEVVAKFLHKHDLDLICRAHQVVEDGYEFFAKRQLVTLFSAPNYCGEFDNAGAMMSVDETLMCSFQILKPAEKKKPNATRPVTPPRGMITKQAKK
Description: (§1) The streptavidin coated surface was activated by 1 minute injection with a solution of 50 mM NaOH and 1 M NaCl three times at a flow rate of 10 μl/min. bio-GBZ or bio-PP1c was diluted in the running buffer (50 mM Tris pH 7.5, 100 mM NaCl, 0.1 mM EGTA, 0.05% Tween 20, 0.1% DMSO) and injected at approximately 300 nM concentration at a flow rate of 10 μl/min directly to streptavidin coated surface to reach immobilization level of bio-GBZ or bio-PP1c corresponding to ˜200 and 6000 RU, respectively. A blank immobilization was performed for one of the SA sensor chip surface to use as a reference.
(§2) With minor deviations, the same procedure and conditions were used in all binding experiments. Small molecules were stored as 50 mM stock solutions in 100% DMSO. Prior to determining binding constants, serial dilutions of either 12 or 8 concentrations of the compounds were prepared in the running buffer in a 96-well plate. […] This was followed by 1 minute stabilization period, to wash off any unspecific binding. Then, without regenerating the surface, the compound dilution series was injected onto the surface of the chip at a flow rate of 30 μl/min for 1 minute, followed by 2 minutes dissociation time. […]
Kinetic experiments are carried out using different concentrations of the compound and their respective equilibrium binding levels determined.

[3] = molecular target: T1, PPP1R15A-PP1 complex (Homo sapiens, UniProt O75807); assay: SPR steady-state binding to R15A-PP1c holophosphatase on streptavidin chip
T1 construct: the cDNAs encoding amino acids 325-636 of PPP1R15A; made in house; host or cells: R15A fragment: E. coli BL21-Gold; BAP-PP1γ: Sf9 insect cells (baculovirus)
T1 sequence (O75807 325-636): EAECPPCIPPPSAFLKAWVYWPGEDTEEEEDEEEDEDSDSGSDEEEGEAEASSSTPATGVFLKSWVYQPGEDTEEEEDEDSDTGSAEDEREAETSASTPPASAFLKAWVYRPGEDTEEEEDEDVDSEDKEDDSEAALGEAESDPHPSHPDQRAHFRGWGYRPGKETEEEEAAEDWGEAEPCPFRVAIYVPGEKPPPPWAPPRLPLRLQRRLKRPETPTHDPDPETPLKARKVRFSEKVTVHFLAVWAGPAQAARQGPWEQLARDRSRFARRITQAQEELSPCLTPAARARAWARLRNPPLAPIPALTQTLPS
T1 sequence (P36873 whole entry partner, the tested form may be a part): as the sequence (P36873 whole entry) above
Description: The streptavidin coated surface was activated by 1 min injection with a solution of 50 mM NaOH and 1 M NaCl. Biotin-PP1 was diluted in the running buffer (50 mM Tris pH 7.5, 100 mM NaCl, 0.1 mM EGTA, 1 mM MnCl2, 0.05% Tween 20) and injected at approximately 300 nM concentration directly to streptavidin coated surface for 100 sec or to reach immobilization level of biotin-PP1 corresponding to ˜7000 RU. A blank immobilization was performed for one of the SA sensor chip surface to use as a reference.
With minor deviations, the same procedure and conditions were used in all binding experiments. Small molecules were stored as 50 mM stock solutions in 100% DMSO. Prior to determining binding constants, serial dilutions of either 12 or 8 concentrations of the compounds were prepared in the running buffer in a 96-well plate. […] Then, without regenerating the surface, the compound dilution series was injected onto the surface of the chip Sensorgrams were analyzed using the Biacore T200 evaluation software and the binding constants determined based on a steady-state model. Kinetic experiments are carried out using different concentrations of the compound and their respective equilibrium binding levels determined.
Surface Plasmon Resonance (SPR) was used to measure the binding affinity of compounds to the PPP1R15A/B-PP1 phosphatase complex. Biotin acceptor peptide (BAP) was fused to the N-terminus of PP1γ, which enables the biotinylation of the BAP-tagged protein in Sf9 insect cells. After purification the BAP-PP1γ protein was captured on a streptavidin sensor chip (SA-chip, GE healthcare) to a response level of ˜5.000 RU. Using controlled biotinylation enables orientated and uniform immobilization on the sensor chip surface. The PP1γ was then used to capture PPP1R15A/B and form a holophosphatase complex on the surface of the streptavidin chip. This complex can then be used to test binding of compounds. 10 μM PPP1R15A/B protein concentration was used to form the holophosphatase complex during a 80 s injection. […] After the concentration series (8 or 12 concentrations) is completed the surface is regenerated with 3 M NaCl and we can capture R15A/B again to form a fresh holophosphatase complex to measure a binding of another compound concentration series. Analysing the level of equilibrium binding as a function of concentration gives interaction affinities or steady-state binding affinity (KD).
as §1
as §2, with “binding.” for “binding. Then, without regenerating the surface, the compound dilution series was injected onto the surface of the chip at a flow rate of 30 μl/min for 1 minute, followed by 2 minutes dissociation time.”

binding to PP1c alone (in words) [2]	binding to R15A-PP1c (in words) [3]	pKd ([3]; steady-state affinity, listed as GBZ)	Compound	eIF2α phosphorylation upon inactivation of R15A ([1]; r15a mut/mut MEFs)	effect on eIF2α phosphorylation in r15b knock out cells ([1]; r15b mut/mut MEFs, 10 μM, listed as TST3)
–	–	–	[H]/N=C(\N)NN=Cc1cccc(Cl)c1Cl [Example 1, (E)-2-(2,3-dichlorobenzylidene)hydrazine-1-carboximidamide]	rendered persistent	activity is abolished
not to PP1c alone	strongly bound	6.91	N=C(N)N/N=C/c1c(Cl)cccc1Cl [Guanabenz, reference compound]	–	–
